The values that follow come from patent US7851474B2, “Dipiperazinyl ketones and related analogues” (Neurogen Corporation, priority 2005, dated 2010).

Molecules are shown by their SMILES. Read-outs that look alike come from different tables or passages of the source.

What is called Ki is a measure of affinity in units of concentration, obtained from inhibition or displacement.

This experiment concerns the target T1, chimeric human H3 receptor (Homo sapiens, UniProt Q9Y5N1, E19D).
T1 construct: made in house; host or cells: Sf9 insect cells (baculovirus infection); P2 membrane preparation
The experiment can be described thus: Chimeric human H3 receptor GTP binding assay (agonist-stimulated GTP-gamma35S binding, Example 7). The class given is biochemical. The essentials:
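IC50 values come from non-linear regression of dose-response curves of filter-bound GTP-gamma^35S, counted by scintillation. Membranes were from infected Sf9 cells carrying receptor plus G-protein subunits, 35 μg/tube, with 10 μM GDP present.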
In general terms: Binding of GTPγS marks nucleotide exchange on a G protein.

[1] abbreviates: Table II "Ki", symbol "*": Ki in the assay of Example 7, read-out: Ki.
[2] abbreviates: assay of Example 7, symbol * in column headed Ki of Table II, read-out: Ki.
[3] abbreviates: Table II, assay of Example 7, "*" in Ki, read-out: Ki.
Where [4] appears, read: Table II, "*" in Ki, assay of Example 7, read-out: Ki.
Setting [5] is: assay of Example 7, "*" in Ki of Table II, read-out: Ki.

T1 sequence (Q9Y5N1 with tags, fused parts or gaps E19D): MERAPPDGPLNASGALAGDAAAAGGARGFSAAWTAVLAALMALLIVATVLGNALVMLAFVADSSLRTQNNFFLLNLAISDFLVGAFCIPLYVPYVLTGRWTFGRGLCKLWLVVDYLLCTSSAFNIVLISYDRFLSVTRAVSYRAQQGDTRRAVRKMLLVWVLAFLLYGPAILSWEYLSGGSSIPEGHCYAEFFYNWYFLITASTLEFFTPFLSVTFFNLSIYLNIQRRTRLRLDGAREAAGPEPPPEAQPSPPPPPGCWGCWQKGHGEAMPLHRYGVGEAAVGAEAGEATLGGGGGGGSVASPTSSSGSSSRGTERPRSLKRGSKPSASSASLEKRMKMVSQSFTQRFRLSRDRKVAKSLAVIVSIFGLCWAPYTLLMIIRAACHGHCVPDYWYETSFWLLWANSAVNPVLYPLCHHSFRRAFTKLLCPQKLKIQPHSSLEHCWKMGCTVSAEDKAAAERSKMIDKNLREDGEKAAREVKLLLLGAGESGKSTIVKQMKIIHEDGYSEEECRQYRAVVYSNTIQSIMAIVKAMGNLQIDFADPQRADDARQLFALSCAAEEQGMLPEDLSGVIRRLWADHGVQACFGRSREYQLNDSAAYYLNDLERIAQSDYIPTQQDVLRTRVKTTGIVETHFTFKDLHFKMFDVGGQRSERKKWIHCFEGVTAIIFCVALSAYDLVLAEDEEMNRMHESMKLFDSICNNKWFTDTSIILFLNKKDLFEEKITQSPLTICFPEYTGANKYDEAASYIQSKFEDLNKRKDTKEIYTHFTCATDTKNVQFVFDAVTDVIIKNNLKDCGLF

Consider `O=C1CCc2cc(N3CCC(C(=O)OCC(=O)N4CCN(C5CCCC5)CC4)CC3)ccc21` [Compound 907, 2-(4-cyclopentylpiperazin-1-yl)-2-oxoethyl 1-(1-oxo-2,3-dihydro-1H-inden-5-yl)piperidine-4-carboxylate], for which the Ki under setting [1] was less than 1 µM.

As to `CC(C)N1C(=O)C2(CCN(CC(=O)N3CCN(C4CCC4)CC3)CC2)c2ccccc21` [Compound 422, 1′-[2-(4-cyclobutylpiperazin-1-yl)-2-oxoethyl]-1-isopropylspiro[indole-3,4′-piperidin]-2(1H)-one], the Ki under setting [2] was less than 1 µM. Consider `CC(C)CNC(=O)c1ccc(N2CCN(CC(=O)N3CCN(C4CCC4)CC3)CC2)cc1` [Compound 1134, 4-{4-[2-(4-cyclobutylpiperazin-1-yl)-2-oxoethyl]piperazin-1-yl}-N-isobutylbenzamide], for which the inhibitory constant (Ki) under setting [3] is less than 1 µM. `COc1cc(-c2ccc(N3CCN(CC(=O)N4CCN(C5CCC5)CC4)CC3)nn2)cc(OC)c1OC` [Compound 1031, 3-{4-[2-(4-cyclobutylpiperazin-1-yl)-2-oxoethyl]paperazin-1-yl}-6-(3,4,5-trimethoxyphenyl) pyridazine]: the Ki under setting [3] is less than 1 µM. Consider `O=C(CN1CCN(c2cnc(-c3ccc(Cl)c(C(F)(F)F)c3)cn2)CC1)N1CCN(C2CCC2)CC1` [Compound 914, 2-[4-chloro-3-(trifluoromethyl)phenyl]-5-{4-[2-(4-cyclobutylpiperazin-1-yl)-2-oxoethyl]piperazin-1-yl}pyrazine], for which, under setting [1], the inhibition constant (Ki) was less than 1 µM. Take `CC(=O)c1ccc(N2CCN(CC(=O)N3CCN(C4CCC4)CC3C)CC2)cc1` (stereo not shown) [Compound 304, 1-(4-{4-[2-(4-cyclobutyl-2-methylpiperazin-1-yl)-2-oxoethyl]piperazin-1-yl}phenyl)ethanone]: the Ki under setting [2] was less than 1 µM. `CN(C)c1cccc(-c2ccc(N3CCN(CC(=O)N4CCN(C5CCC5)CC4)CC3)nn2)c1` [Compound 996, 3-(6-{4-[2-(4-cyclobutylpiperazin-1-yl)-2-oxoethyl]piperazin-1-yl}pyridazin-3-yl)-N,N-dimethylaniline]: the Ki under setting [3] was less than 1 µM. In the case of `O=C(CN1CCN(c2ccc(-c3ccccc3)cc2)CC1)N1CCN(C2CCC2)CC1` [Compound 494, 1-biphenyl-4-yl-4-[2-(4-cyclobutylpiperazin-1-yl)-2-oxoethyl]piperazine], the Ki ("*" in Ki of Table II, assay of Example 7, read-out: Ki) was less than 1 µM. On to `O=C(CN1CCN(c2ccc(-c3cc(Cl)cc(Cl)c3)cc2)CC1)N1CCN(C2CCC2)CC1` [Compound 739, 1-cyclobutyl-4-{[4-(3′,5′-dichlorobiphenyl-4-yl)piperazin-1-yl]acetyl}piperazine], for which the inhibition constant Ki under setting [4] is less than 1 µM. `CCCN(CC1CC1)C1CCN(CC(=O)N2CCN(C3CCC3)CC2)CC1` [Compound 431, 1-[2-(4-cyclobutylpiperazin-1-yl)-2-oxoethyl]-N-(cyclopropylmethyl)-N-propylpiperidin-4-amine]: the inhibition constant (Ki) under setting [2] is less than 1 µM. Turning to `O=C(NC1CCN(CC(=O)N2CCN(C3CCC3)CC2)C1)C1CC2CCC1C2` (stereo not shown) [Compound 1255, N-{1-[2-(4-cyclobutylpiperazin-1-yl)-2-oxoethyl]pyrrolidin-3-yl}bicyclo[2.2.1]heptane-2-carboxamide], the Ki under setting [5] was less than 1 µM.

As for `O=C(CN1CCN(c2ccc(F)cc2F)CC1)N1C[C@H]2C[C@@H]1CN2C1CCC1` [Compound 247, (1R,4R)-2-cyclobutyl-5-{[4-(2,4-difluorophenyl)piperazin-1-yl]acetyl}-2,5-diaza bicyclo[2.2.1]heptane], the Ki under setting [2] was less than 1 µM.

`CCCCCNC(=O)c1cccc(N2CCN(CC(=O)N3CCN(C4CCC4)CC3)CC2)c1` [Compound 1075, 3-{4-[2-(4-cyclobutylpiperazin-1-yl)-2-oxoethyl]piperazin-1-yl}-N-pentylbenzamide]: under setting [3], the inhibition constant Ki was less than 1 µM. For `CC1CN(c2ccc(C(F)(F)F)cn2)CCN1CC(=O)N1CCN(C2CCC2)CC1` (stereo not shown) [Compound 427, 1-[2-(4-cyclobutylpiperazin-1-yl)-2-oxoethyl]-2-methyl-4-[5-(trifluoromethyl)pyridin-2-yl]piperazine], the Ki under setting [2] is less than 1 µM. With `CC(=O)c1ccc(N2CCN(CC(=O)N3CCN(C(C)C)CC3)CC2)cc1` [Compound 329, 1-(4-{4-[2-(4-isopropylpiperazin-1-yl)-2-oxoethyl]piperazin-1-yl}phenyl)ethanone], under setting [2], the Ki was less than 1 µM. With `O=C(NC1CCCCC1)c1ccc(N2CCN(CC(=O)N3CCN(C4CCC4)CC3)CC2)cc1` [Compound 1139, 4-{4-[2-(4-cyclobutylpiperazin-1-yl)-2-oxoethyl]piperazin-1-yl}-N-cyclohexylbenzamide], the Ki under setting [5] was less than 1 µM. As for `Cc1ccc(C(=O)NC2CCN(CC(=O)N3CCN(C4CCC4)CC3)C2)cc1` (stereo not shown) [Compound 1231, N-{1-[2-(4-cyclobutylpiperazin-1-yl)-2-oxoethyl]pyrrolidin-3-yl}-4-methylbenzamide], the Ki under setting [5] is less than 1 µM. In the case of `CCSc1ccc(C(=O)NC2CCN(CC(=O)N3CCN(C4CCC4)CC3)C2)cc1` (stereo not shown) [Compound 1242, N-{1-[2-(4-cyclobutylpiperazin-1-yl)-2-oxoethyl]pyrrolidin-3-yl}-4-(ethylthio)benzamide], the Ki under setting [5] was less than 1 µM. Regarding `Cc1ccc(-c2cnc(N3CCN(CC(=O)N4CCN(C5CCC5)CC4)CC3)cn2)c(F)c1` [Compound 920, 2-{4-[2-(4-cyclobutylpiperazin-1-yl)-2-oxoethyl]piperazin-1-yl}-5-(2-fluoro-4-methylphenyl)pyrazine], under setting [1], the Ki was less than 1 µM. With `O=C(CN1CCN(c2ccc(N3CCCC3=O)cc2)CC1)N1CCN(C2CCC2)CC1` [Compound 320, 1-(4-{4-[2-(4-cyclobutylpiperazin-1-yl)-2-oxoethyl]piperazin-1-yl}phenyl)pyrrolidin-2-one], the Ki under setting [2] was less than 1 µM.

`O=C(c1ccccc1)c1ccc(N2CCN(CC(=O)N3CCN(C4CCCC4)CC3)CC2)cc1` [Compound 251, (4-{4-[2-(4-cyclopentylpiperazin-1-yl)-2-oxoethyl]piperazin-1-yl}phenyl)(phenyl)methanone]: under setting [2], the Ki was less than 1 µM. Regarding `CC1CC(C)CN(C(=O)c2cccc(N3CCN(CC(=O)N4CCN(C5CCC5)CC4)CC3)c2)C1` (stereo not shown) [Compound 641, 1-cyclobutyl-4-[(4-{3-[(3,5-dimethylpiperidin-1-yl)carbonyl]phenyl}piperazin-1-yl)acetyl]piperzaine], the Ki under setting [4] was less than 1 µM.

Regarding `CCC(C)N1CCN(C(=O)CN2CCN(c3ccccc3C)CC2)CC1` (stereo not shown) [Compound 868, 1-sec-butyl-4-{[4-(2-methylphenyl)piperazin-1-yl]acetyl}piperazine], the Ki was less than 1 µM. Consider `CN1Cc2cc(N3CCN(CC(=O)N4CCN(C5CCC5)CC4)CC3)ccc2C1=O` [Compound 1155, 5-{4-[2-(4-cyclobutylpiperazin-1-yl)-2-oxoethyl]piperazin-1-yl}-2-methylisoindolin-1-one], for which, under setting [5], the Ki was less than 1 µM. In the case of `CC(C)Oc1cccc(-c2ccc(N3CCN(CC(=O)N4CCN(C5CCC5)CC4)CC3)cc2)c1` [Compound 755, 1-cyclobutyl-4-{[4-(3′-isopropoxybiphenyl-4-yl)piperazin-1-yl]acetyl}piperazine], the Ki under setting [4] is less than 1 µM.

Turning to `O=C(CN1CCN(c2ccc(-c3ccc(F)c(F)c3)nn2)CC1)N1CCN(C2CCC2)CC1` [Compound 1049, 3-{4-[2-(4-cyclobutylpiperazin-1-yl)-2-oxoethyl]piperazin-1-yl}-6-(3,4-difluorophenyl)pyridazine], the Ki under setting [3] is less than 1 µM. For `O=C(CN1CCN(c2cnc(-c3cc(Cl)cc(Cl)c3)cn2)CC1)N1CCN(C2CCC2)CC1` [Compound 963, 2-{4-[2-(4-cyclobutylpiperazin-1-yl)-2-oxoethyl]piperazin-1-yl}-5-(3,5-dichlorophenyl)pyrazine], the Ki under setting [3] was less than 1 µM.

`CC(Oc1ccccc1)C(=O)N1CCN(CC(=O)N2CCN(C3CCC3)CC2)CC1` (stereo not shown) [Compound 720, 1-cyclobutyl-4-{[4-(2-phenoxypropanoyl)piperazin-1-yl]acetyl}piperazine]: the inhibitory constant (Ki) under setting [4] is less than 1 µM. As to `CCC(C)N1CCN(C(=O)CN2CCN(c3ncc(F)cn3)CC2)CC1` (stereo not shown) [Compound 979, 2-{4-[2-(4-sec-butylpiperazin-1-yl)-2-oxoethyl]piperazin-1-yl}-5-fluoropyrimidine], under setting [3], the Ki is less than 1 µM. As to `COc1ccc(-c2ccc(-c3cnc(N4CCN(CC(=O)N5CCN(C6CCC6)CC5)CC4)cn3)cc2)cc1` [Compound 939, 2-{4-[2-(4-cyclobutylpiperazin-1-yl)-2-oxoethyl]piperazin-1-yl}-5-(4′-methoxybiphenyl-4-yl)pyrazine], the Ki under setting [3] is less than 1 µM. Turning to `COc1ccc(-c2cnc(N3CCN(CC(=O)N4CCN(C5CCC5)CC4)CC3)cn2)cc1C` [Compound 948, 2-{4-[2-(4-cyclobutylpiperazin-1-yl)-2-oxoethyl]piperazin-1-yl}-5-(4-methoxy-3-methylphenyl)pyrazine], the Ki under setting [3] was less than 1 µM. As to `O=C(CN1CCN(c2cccc(F)c2)CC1)N1CCN(C2CCC2)CC1` [Compound 754, 1-cyclobutyl-4-{[4-(3-fluorophenyl)piperazin-1-yl]acetyl}piperazine], under setting [4], the Ki is less than 1 µM. `CCC(C)N1CCN(C(=O)CN2CCN(c3ccc([N+](=O)[O-])cc3)CC2)CC1` (stereo not shown) [Compound 883, 1-sec-butyl-4-{[4-(4-nitrophenyl)piperazin-1-yl]acetyl}piperazine]: under setting [1], the inhibitory constant (Ki) is less than 1 µM.

Take `O=C(NC1CCCCCC1)c1ccc(N2CCN(CC(=O)N3CCN(C4CCC4)CC3)CC2)cc1` [Compound 1143, 4-{4-[2-(4-cyclobutylpiperazin-1-yl)-2-oxoethyl]piperazin-1-yl}-N-cycloheptylbenzamide]: the Ki under setting [5] is less than 1 µM.
